What was measured:
Type in all cases: biochemical
[1] = biological target: T1, recombinant active site-titrated Casp6 (Homo sapiens, UniProt P55212); test: IC50 on in-house recombinant active site-titrated Casp6 (Ac-VEID-AFC fluorogenic assay); settings: 20 nM Casp6, 5 min preincubation at room temperature, 10 μM Ac-VEID-AFC; read-out: IC50 against recombinant active site-titrated Casp6
T1 construct: human Casp6 large subunit (amino acids 24-179, flanked by start (ATG) and stop (TAA) codons); small subunit (amino acids 194-293, preceded by a start codon); initiator Met (added start codon) (N); His; made in house; host or cells: E. coli BL21(DE3)pLysS
T1 sequence (P55212 24-179): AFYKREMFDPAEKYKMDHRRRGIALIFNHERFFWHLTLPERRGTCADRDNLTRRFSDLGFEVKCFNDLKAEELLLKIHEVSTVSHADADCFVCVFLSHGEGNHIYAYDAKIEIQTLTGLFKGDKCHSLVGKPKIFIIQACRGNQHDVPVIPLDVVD
T1 sequence (P55212 194-293): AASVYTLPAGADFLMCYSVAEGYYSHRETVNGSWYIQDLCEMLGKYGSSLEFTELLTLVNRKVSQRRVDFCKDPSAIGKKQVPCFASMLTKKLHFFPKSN
Procedure: Recombinant Casp6 Expression and purification: Casp6 was expressed from the pET23b(+)-Casp6-His plasmid in E. coli BL21(DE3)pLysS strain (Promega, Fitchburg, WI, USA) at 37 °C in 2xYT medium (16 g/l tryptone, 10 g/l yeast extract, 5 g/l NaCl) supplemented with 0.1 mg/ml ampicillin and 0.034 mg/ml chloramphenicol under vigorous shaking according to [46]. Casp6 expression was induced with 50 μM isopropyl β-D-1-thiogalactopyranoside (IPTG) when cell cultures reached OD595 nm of 0.6 and cells cultured at 22 °C for 16 h under vigorous shaking. […] The lysate was clarified by centrifugation (30,000 x g for 30 min at 4 °C) and loaded on Ni Sepharose Fast Flow 6 medium (GE Healthcare Life Sciences, Baie D’Urfe, QC, CA) pre-equilibrated with buffer A, washed with buffer B (50 mM Tris pH 8.5, 500 mM NaCl, 5% glycerol, 20 mM imidazole), and bound proteins eluted with a 50-300 mM linear imidazole gradient in buffer A. Fractions were assessed for recombinant Casp6 purity by SDS-PAGE and Coomassie blue staining. […] Protein concentration was measured using Quick Start Bradford 1x Dye Reagent (Bio-Rad Laboratories, Hercules, CA, USA). Active site titration assay: The concentration of Casp6 active sites was determined by active site titration assay using Z-VAD-fmk (N-benzyloxycarbonyl-Val-Ala-Asp-(O-methyl)-fluoromethylketone, MP Biomedicals, Santa Ana, CA, USA) inhibitor [46]. […]

recombinant Caspase-4 = biological target: T2, recombinant Caspase-4 (Homo sapiens, UniProt P49662); test: Caspase Inhibitor Drug Screening Kit (BioVision), LEVD-AFC substrate; settings: not active site titrated
T2 construct: purchased BioVision
T2 sequence (P49662 81-377): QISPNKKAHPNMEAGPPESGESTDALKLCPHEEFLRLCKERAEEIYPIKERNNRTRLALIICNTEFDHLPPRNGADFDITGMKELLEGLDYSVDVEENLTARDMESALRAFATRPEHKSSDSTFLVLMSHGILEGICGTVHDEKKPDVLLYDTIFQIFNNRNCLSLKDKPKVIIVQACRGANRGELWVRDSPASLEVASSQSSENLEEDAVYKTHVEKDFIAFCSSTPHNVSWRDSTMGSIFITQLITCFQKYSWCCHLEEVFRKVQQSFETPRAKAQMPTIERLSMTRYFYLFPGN
Procedure: (§1) The half-maximal inhibitory concentrations (IC50) for NWL inhibitors (Patent publication # WO/2009/140765, WO/2010/133000, and WO/2012/140500) was determined by incubating 0 to 20 μM NWL-117 and NWL-154 with 20 nM of active site-titrated Casp6 in SB at room temperature for 5 minutes. Then, 10 μM Ac-VEID-AFC was added and fluorescence measured for 20 min at 37 °C as described above. New World Laboratories performed the IC50 determination for NWL inhibitors dissolved in dimethyl sulfoxide (DMSO) against recombinant Casp1-10 using the Caspase Inhibitor Drug Screening Kits (BioVision, San Francisco, CA) following the manufacturer’s instructions and the preferred substrates for the caspases (Caspase-1: WAD-AFC, Caspase-2: VDVAD-AFC, Caspase-3: DEVD-AFC, Caspase-4: LEVD-AFC, Caspase-5: WEHD-AFC, Casp6:VEID-AFC, Caspase-7: DEVD-AFC, Caspase-8: IETD-AFC, Caspase-9: LEHD-AFC, Caspase-10: AEVD-AFC). In transfected HCT116 cells, 0 to 100 μM NWL inhibitors were added in the culture media and left on the cells for 2 h. Cells were washed once with 1 mL ice-cold PBS, incubated on ice for 5 min with 200 μL cell lysis buffer (CLB) (50 mM HEPES, 0.1% CHAPS, 0.1 mM EDTA), and gently scraped off. Protein concentrations were determined by Bradford assay (BioRad, Mississauga, ON, CA) by measuring the absorbance at 595 nm using the BioTek Synergy H4 plate reader. […]

recombinant Caspase-5 = biological target: T3, recombinant Caspase-5 (Homo sapiens, UniProt P51878); test: Caspase Inhibitor Drug Screening Kit (BioVision), WEHD-AFC substrate; settings: not active site titrated
T3 construct: purchased BioVision
T3 sequence (P51878 137-434): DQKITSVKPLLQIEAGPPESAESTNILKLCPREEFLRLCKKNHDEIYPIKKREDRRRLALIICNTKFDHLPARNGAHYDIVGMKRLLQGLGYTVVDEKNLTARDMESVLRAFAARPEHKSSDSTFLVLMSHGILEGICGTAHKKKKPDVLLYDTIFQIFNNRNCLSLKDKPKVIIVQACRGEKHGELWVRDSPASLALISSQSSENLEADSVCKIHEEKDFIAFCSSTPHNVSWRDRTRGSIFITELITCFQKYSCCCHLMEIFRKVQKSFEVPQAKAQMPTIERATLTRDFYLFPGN
Procedure: as §1

recombinant Caspase-9 = biological target: T4, recombinant Caspase-9 (Homo sapiens, UniProt P55211); test: Caspase Inhibitor Drug Screening Kit (BioVision), LEHD-AFC substrate; settings: not active site titrated
T4 construct: purchased BioVision
T4 sequence (P55211 whole entry): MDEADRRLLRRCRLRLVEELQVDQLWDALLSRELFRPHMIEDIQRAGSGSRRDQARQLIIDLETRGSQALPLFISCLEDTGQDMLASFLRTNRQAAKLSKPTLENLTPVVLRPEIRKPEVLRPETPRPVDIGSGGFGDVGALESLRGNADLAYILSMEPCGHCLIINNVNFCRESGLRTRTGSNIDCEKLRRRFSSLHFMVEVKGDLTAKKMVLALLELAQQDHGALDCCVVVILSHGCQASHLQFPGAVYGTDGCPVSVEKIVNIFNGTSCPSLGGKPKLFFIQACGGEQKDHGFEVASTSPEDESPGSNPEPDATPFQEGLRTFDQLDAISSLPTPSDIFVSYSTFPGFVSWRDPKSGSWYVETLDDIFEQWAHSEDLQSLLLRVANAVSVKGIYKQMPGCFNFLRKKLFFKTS
Procedure: as §1

recombinant Caspase-10 = biological target: T5, recombinant Caspase-10 (Homo sapiens, UniProt Q92851); test: Caspase Inhibitor Drug Screening Kit (BioVision), AEVD-AFC substrate; settings: not active site titrated
T5 construct: purchased BioVision
T5 sequence (Q92851 220-521): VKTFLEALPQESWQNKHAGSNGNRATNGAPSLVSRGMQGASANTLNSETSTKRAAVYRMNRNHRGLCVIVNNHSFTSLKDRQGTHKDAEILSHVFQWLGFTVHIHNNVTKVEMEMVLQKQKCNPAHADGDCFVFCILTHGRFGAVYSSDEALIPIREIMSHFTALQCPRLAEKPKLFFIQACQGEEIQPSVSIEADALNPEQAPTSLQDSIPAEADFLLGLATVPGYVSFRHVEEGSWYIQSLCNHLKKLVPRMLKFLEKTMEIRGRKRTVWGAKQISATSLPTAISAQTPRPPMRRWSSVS
Procedure: as §1

Compound	IC50 [1] [nM]	IC50 (recombinant Caspase-4) [nM]	IC50 (recombinant Caspase-5) [nM]	IC50 (recombinant Caspase-9) [nM]	IC50 (recombinant Caspase-10) [nM]
CCC(C)[C@H](NC(=O)[C@H](CCC(=O)O)NC(=O)[C@@H](NC(=O)OCc1ccccc1)C(C)C)C(=O)N[C@H](/C=C/S(C)(=O)=O)CC(=O)O (stereo partly shown) [NWL-117]	192	380	19500	790	130
CCC(C)[C@H](NC(=O)[C@H](CCC(=O)O)NC(=O)[C@@H](NC(=O)OCc1ccccc1)C(C)C)C(=O)N[C@H](/C=C(\Cl)S(C)(=O)=O)CC(=O)O (stereo partly shown) [NWL-154]	100	1800	4190	6400	190
